The values that follow come from the Kinase Knowledgebase extract (Sharma et al. 2016).

Structures are written as SMILES. Where “and” joins values, the source holds several entries; their conditions need not be identical. Equal values may be shown once.

The target in the assay is MAPK14 (human) (UniProt Q16539). The assay is described as follows: Inhibition of LPS Stimulated TNF Production by U937 Cells. Conditions: for inhibition: concentration not given here.
Sequence of MAPK14 (human) (Q16539 whole entry, looked up): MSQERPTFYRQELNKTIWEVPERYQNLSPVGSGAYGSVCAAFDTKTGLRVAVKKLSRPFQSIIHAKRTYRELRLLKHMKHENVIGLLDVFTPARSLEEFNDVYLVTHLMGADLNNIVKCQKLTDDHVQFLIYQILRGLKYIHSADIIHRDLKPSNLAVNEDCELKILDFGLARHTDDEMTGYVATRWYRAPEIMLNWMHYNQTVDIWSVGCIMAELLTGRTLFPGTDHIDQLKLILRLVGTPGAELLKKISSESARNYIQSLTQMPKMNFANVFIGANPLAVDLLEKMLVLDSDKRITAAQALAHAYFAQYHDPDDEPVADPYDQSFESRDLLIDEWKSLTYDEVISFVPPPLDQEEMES

The compound `O=C(N[C@H](Cc1ccccc1)c1[nH]nc(-c2ccc(F)cc2)c1-c1ccncc1)c1cccnc1` displayed an inhibition of 38%.
`CC(C)c1ccc(S(=O)(=O)N[C@@H](C)c2[nH]nc(-c3ccc(F)cc3)c2-c2ccncc2)cc1` returned an inhibition of 76%.
With `CC(C)c1cc(C(C)C)c(C(=O)N[C@H](C)c2[nH]nc(-c3ccc(F)cc3)c2-c2ccncc2)c(C(C)C)c1`, the inhibition was 31%.
`CC(C)C(=O)NCc1[nH]nc(-c2ccc(F)cc2)c1-c1ccncc1` returned an IC50 of 0.65 µM.
Regarding `O=C(NCc1[nH]nc(-c2ccc(F)cc2)c1-c1ccncc1)c1ccc(Cl)cc1`, the inhibition turned out to be 19%.
Same read-out and setting: the same measure for `Cc1noc(C)c1C(=O)N[C@H](C)c1[nH]nc(-c2ccc(F)cc2)c1-c1ccncc1`: 73%.
Compound `C[C@@H](NC(=O)c1c(F)cccc1F)c1[nH]nc(-c2ccc(F)cc2)c1-c1ccncc1` returned an inhibition of 83%.
On to `O=S(=O)(c1ccccc1C(F)(F)F)N1CCC(c2[nH]nc(-c3ccc(F)cc3)c2-c2ccncc2)CC1`, for which the inhibition worked out at 29%.
The compound `C#CCNc1n[nH]c(-c2ccc(F)cc2)c1-c1ccncc1` showed an IC50 of 0.3 µM.
As to `COc1ccc(OC)c(S(=O)(=O)N2CCC(c3[nH]nc(-c4ccc(F)cc4)c3-c3ccncc3)CC2)c1`, the inhibition was determined as 24%.
Turning to `CS(=O)(=O)N[C@H](Cc1ccccc1)c1[nH]nc(-c2ccc(F)cc2)c1-c1ccncc1`, the inhibition turned out to be 17%.
With `O=C(NCCc1[nH]nc(-c2ccc(F)cc2)c1-c1ccncc1)c1ccc(F)cc1C(F)(F)F`, the inhibition was 29%.
Compound `Cc1ccc(C(=O)N[C@H](Cc2ccccc2)c2[nH]nc(-c3ccc(F)cc3)c2-c2ccncc2)cc1` yielded an IC50 above 1 µM.
For the compound `CC(C)OC(=O)NCc1[nH]nc(-c2ccc(F)cc2)c1-c1ccncc1`, the inhibition was found to be 54%.
Same read-out and setting: with `O=S(=O)(NCc1[nH]nc(-c2ccc(F)cc2)c1-c1ccncc1)c1cccc2nonc12` the figure was 54%.
On the same count and under the same terms, the same measure for `CCCNC(=O)N[C@H](C)c1[nH]nc(-c2ccc(F)cc2)c1-c1ccncc1`: 55%.
As for `CNC(=O)CC[C@H](NS(=O)(=O)Cc1ccccc1)c1[nH]nc(-c2ccc(F)cc2)c1-c1ccncc1`, the concentration for half-maximal inhibition (IC50) was above 1 µM.
In the case of `O=S(=O)(NCc1[nH]nc(-c2ccc(F)cc2)c1-c1ccncc1)c1cccc(Cl)c1Cl`, the inhibition is 30%.
The compound `O=C(N[C@H](Cc1ccccc1)c1[nH]nc(-c2ccc(F)cc2)c1-c1ccncc1)[C@H]1CCCN1` returned an inhibition of 2%.
`CN(C)CCCNc1n[nH]c(-c2ccc(F)cc2)c1-c1ccncc1` yielded a 50% inhibitory concentration (IC50) of 0.27 µM.
The compound `CNC(=O)CC[C@H](NC(=O)c1ccccc1F)c1[nH]nc(-c2ccc(F)cc2)c1-c1ccncc1` yielded an IC50 above 1 µM.
As to `O=S(=O)(NCCCc1[nH]nc(-c2ccc(F)cc2)c1-c1ccncc1)c1cccc(Cl)c1Cl`, the inhibition turned out to be 18%.
`C[C@@H](NC(=O)Cc1cccs1)c1[nH]nc(-c2ccc(F)cc2)c1-c1ccncc1`: the inhibition is 33%.
The same measure, in the same setting: with `C[C@@H](NC(=O)c1cccc(Br)c1)c1[nH]nc(-c2ccc(F)cc2)c1-c1ccncc1` the figure was 27%; with `Cc1cccc(C(=O)N[C@@H](C)c2[nH]nc(-c3ccc(F)cc3)c2-c2ccncc2)c1`, 29%; with `C[C@H](NC(=O)c1cccc(Br)c1)c1[nH]nc(-c2ccc(F)cc2)c1-c1ccncc1`, 21%.
Same read-out and setting: with `Cc1noc(C)c1S(=O)(=O)NCCCc1[nH]nc(-c2ccc(F)cc2)c1-c1ccncc1` the figure was 85%.
Compound `COC(=O)CNc1n[nH]c(-c2ccc(F)cc2)c1-c1ccncc1` displayed an IC50 above 10 µM.
For the compound `CNC(=O)CC[C@H](NC(=O)Cc1cccc(OC)c1)c1[nH]nc(-c2ccc(F)cc2)c1-c1ccncc1`, the inhibition amounted to 3%.
As to `CC(=O)NCc1[nH]nc(-c2ccc(F)cc2)c1-c1ccncc1`, the IC50 was 0.19 µM.
Take `Fc1ccc(CNc2cc(-c3cn(CCN4CCOCC4)nc3-c3ccc(F)cc3)ccn2)cc1`: the IC50 is 0.179 µM and 0.45 µM.
For the compound `O=C(NCCCc1[nH]nc(-c2ccc(F)cc2)c1-c1ccncc1)NC1CN2CCC1CC2` (stereo unspecified), the half-maximal inhibitory concentration (IC50) is above 1 µM.
Consider `Cc1ccc(C)c(S(=O)(=O)N[C@H](C)c2[nH]nc(-c3ccc(F)cc3)c2-c2ccncc2)c1`, for which the inhibition was 93%.
On to `COc1ccc(CC(=O)NCc2[nH]nc(-c3ccc(F)cc3)c2-c2ccncc2)cc1OC`, for which the half-inhibitory concentration (IC50) worked out at 10 µM.
`CC(C)c1ccc(S(=O)(=O)NCc2[nH]nc(-c3ccc(F)cc3)c2-c2ccncc2)cc1`: the IC50 is above 1 µM.
With `C[C@H](NC(=O)[C@H]1CCCN1)c1[nH]nc(-c2ccc(F)cc2)c1-c1ccncc1`, the inhibition was found to be 20%.
Regarding `C[C@H](NC(=O)c1ccc(C(F)(F)F)cc1)c1[nH]nc(-c2ccc(F)cc2)c1-c1ccncc1`, the inhibition was 29%.
For the compound `O=C(NCc1[nH]nc(-c2ccc(F)cc2)c1-c1ccncc1)c1cccc(Cl)c1Cl`, the inhibition came out at 33%.
As to `CNC(=O)CC[C@H](NC(=O)c1cccc(Br)c1)c1[nH]nc(-c2ccc(F)cc2)c1-c1ccncc1`, the concentration for half-maximal inhibition (IC50) was above 1 µM.
Regarding `O=[N+]([O-])c1cc(S(=O)(=O)NCc2[nH]nc(-c3ccc(F)cc3)c2-c2ccncc2)ccc1Cl`, the inhibition is 15%.
The compound `O=C(NCc1[nH]nc(-c2ccc(F)cc2)c1-c1ccncc1)c1c(Cl)cc(Cl)cc1Cl` showed an inhibition of 100%.
The same measure, in the same setting: the same measure for `CNC(=O)CC[C@H](NC(=O)C1CC1)c1[nH]nc(-c2ccc(F)cc2)c1-c1ccncc1`: 28%.
On the same count and under the same terms, with `O=C(NCc1[nH]nc(-c2ccc(F)cc2)c1-c1ccncc1)C1CCC1` the figure was 28%; with `CC(C)OC(=O)N[C@@H](C)c1[nH]nc(-c2ccc(F)cc2)c1-c1ccncc1`, 53%.
For `CC(=O)OC(C)(C)C(=O)NCc1[nH]nc(-c2ccc(F)cc2)c1-c1ccncc1`, the IC50 came out at 0.54 µM.
`C[C@H](NC(=O)N1CCOCC1)c1[nH]nc(-c2ccc(F)cc2)c1-c1ccncc1` registered an inhibition of 37%.
Still for that read-out and setting: the same measure for `C[C@H](NS(=O)(=O)c1ccc(-c2ccccn2)s1)c1[nH]nc(-c2ccc(F)cc2)c1-c1ccncc1`: 92%; for `C[C@H](NC(=O)c1cc(F)c(F)cc1F)c1[nH]nc(-c2ccc(F)cc2)c1-c1ccncc1`: 43%.
For the compound `O=C(CCc1ccccc1)NCc1[nH]nc(-c2ccc(F)cc2)c1-c1ccncc1`, the inhibition amounted to 21%.
As for `Fc1ccc(-c2n[nH]cc2-c2ccnc(NCCN3CCOCC3)c2)cc1`, the half-inhibitory concentration (IC50) is 0.539 µM.
`C[C@@H](NS(=O)(=O)c1ccc(-c2ccon2)s1)c1[nH]nc(-c2ccc(F)cc2)c1-c1ccncc1` displayed an inhibition of 95%.
Still for that read-out and setting: the same measure for `CC(C)=CC(=O)N[C@@H](C)c1[nH]nc(-c2ccc(F)cc2)c1-c1ccncc1`: 21%; for `O=S(=O)(NCc1[nH]nc(-c2ccc(F)cc2)c1-c1ccncc1)c1ccc(S(=O)(=O)c2ccccc2)s1`: 64%; for `O=C(NCc1[nH]nc(-c2ccc(F)cc2)c1-c1ccncc1)c1ccc(F)cc1F`: 54%.
Turning to `COc1ccc(CNc2cc(-c3c[nH]nc3-c3ccc(Cl)cc3)ccn2)cc1`, the IC50 came to 0.495 µM.
With `C[C@@H](NC(=O)c1cc(F)c(F)cc1F)c1[nH]nc(-c2ccc(F)cc2)c1-c1ccncc1`, the inhibition was 52%.
As for `Cc1noc(C)c1S(=O)(=O)NCc1[nH]nc(-c2ccc(F)cc2)c1-c1ccncc1`, the inhibition was found to be 1%.
As to `Fc1ccc(-c2n[nH]cc2-c2ccnc(NCc3cccc(F)c3)c2)cc1`, the IC50 turned out to be 0.141 µM.
Compound `O=C(NCc1[nH]nc(-c2ccc(F)cc2)c1-c1ccncc1)c1c(F)cccc1F` had an inhibition of 48%.
In the case of `C[C@H](NS(C)(=O)=O)c1[nH]nc(-c2ccc(F)cc2)c1-c1ccncc1`, the IC50 is 1.7 µM.
The compound `CNC(=O)CC[C@H](NC(=O)COC)c1[nH]nc(-c2ccc(F)cc2)c1-c1ccncc1` registered an IC50 above 1 µM.
In turn, `O=C(NCCCc1[nH]nc(-c2ccc(F)cc2)c1-c1ccncc1)NCc1cccnc1` displayed an inhibition of 11%.
For `CC(C)C(=O)N[C@H](Cc1ccccc1)c1[nH]nc(-c2ccc(F)cc2)c1-c1ccncc1`, the IC50 was above 1 µM.
`Cc1c(Cl)cccc1S(=O)(=O)NCc1[nH]nc(-c2ccc(F)cc2)c1-c1ccncc1`: the inhibition is 15%.
Same read-out and setting: with `CC1(C)[C@H]2CC[C@@]1(CS(=O)(=O)NCc1[nH]nc(-c3ccc(F)cc3)c1-c1ccncc1)C(=O)C2` the figure was 20%.
Consider `CC(C)(C)C(=O)N[C@@H](Cc1ccccc1)c1[nH]nc(-c2ccc(F)cc2)c1-c1ccncc1`, for which the inhibition is 22%.
Compound `C[C@H](NC(=O)c1cccc(Cl)c1)c1[nH]nc(-c2ccc(F)cc2)c1-c1ccncc1` came in with an inhibition of 39%.
Compound `C[C@@H](NS(=O)(=O)c1ccccc1Br)c1[nH]nc(-c2ccc(F)cc2)c1-c1ccncc1` came in with an inhibition of 80%.
`O=C(NCc1[nH]nc(-c2ccc(F)cc2)c1-c1ccncc1)c1ccncc1` registered an inhibition of 3%.
As for `O=C(c1ccc(Cl)cc1)N1CCC(c2[nH]nc(-c3ccc(F)cc3)c2-c2ccncc2)CC1`, the IC50 came to 0.57 µM.
Compound `CCS(=O)(=O)N[C@H](Cc1ccccc1)c1[nH]nc(-c2ccc(F)cc2)c1-c1ccncc1` returned an inhibition of 5%.
In turn, `O=C(NCc1[nH]nc(-c2ccc(F)cc2)c1-c1ccncc1)c1ccc(C(F)(F)F)cc1` gave an inhibition of 24%.
With `CCN(CC)C(=O)N[C@H](C)c1[nH]nc(-c2ccc(F)cc2)c1-c1ccncc1`, the inhibition worked out at 49%.
Consider `C[C@@H](NC(=O)c1cc(C(F)(F)F)ccc1F)c1[nH]nc(-c2ccc(F)cc2)c1-c1ccncc1`, for which the inhibition stood at 43%.
On to `C[C@@H](NC(=O)c1cc2ccccc2s1)c1[nH]nc(-c2ccc(F)cc2)c1-c1ccncc1`, for which the inhibition worked out at 16%.
Take `C[C@@H](NS(=O)(=O)/C=C/c1ccccc1)c1[nH]nc(-c2ccc(F)cc2)c1-c1ccncc1`: the inhibition came out at 36%.
The same measure, in the same setting: the same measure for `C[C@H](NS(=O)(=O)c1ccc(C#N)cc1)c1[nH]nc(-c2ccc(F)cc2)c1-c1ccncc1`: 95%.
As for `O=C(NCc1[nH]nc(-c2ccc(F)cc2)c1-c1ccncc1)c1ccc(F)cc1`, the IC50 was 2.76 µM.
Consider `COc1ccc(OC)c(S(=O)(=O)NCCc2[nH]nc(-c3ccc(F)cc3)c2-c2ccncc2)c1`, for which the inhibition amounted to 29%.
In the case of `O=C(NCCCc1[nH]nc(-c2ccc(F)cc2)c1-c1ccncc1)NCCCN1CCCC1`, the inhibition was determined as 1%.
`OCCn1cc(-c2ccnc(NCc3ccc(F)cc3)c2)c(-c2ccc(F)cc2)n1`: the IC50 was 0.14 µM and 0.8 µM.

Broadly, the inhibition is the drop in the measured response relative to a control, in per cent. Lower therefore signals a weak effect. What is called IC50 is the concentration that gives 50% inhibition.
